Assay results published in patent US11691992B2 (Anacor Pharmaceuticals, Inc., priority 2017, dated 2023).
pIC50: −log10 of the molar value. Read-outs that look alike come from different tables or passages of the source.

Key:
Type in all cases: cell-based
[1] = tested on: TdTomato-modified T. cruzi (CL strain) in Vero cells; assay: In vitro IC50 measurement of T. cruzi amastigote killing using TdTomato-modified T. cruzi (CL strain); details: Trypanosoma cruzi, 72 h, fluorescence, read-out: IC50: I Org. amastigote Growth T. cruzi CL TdTomato, 3 d
Outline: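 Vero cells were infected with tdTomato-expressing CL-strain parasites and dosed at 5 uM–5 nM. Fluorescence (ex 544/em 612 nm) was read at day 0 and again after 72 h at 37 °C, with day 0 values subtracted. IC50 and IC90 came from nonlinear regression.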

[2] = tested on: luciferase-expressing L. major parasites developing intracellularly inside RAW 264.7 macrophages; assay: Leishmania major intracellular amastigote assay in RAW 264.7 macrophages (luciferase); details: RAW264.7, 96 hours, read-out: IC50: I Org. intracellular amastigote Growth L. major, 4 d
Outline: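 RAW 264.7 macrophages infected overnight with luciferase-expressing L. major promastigotes, washed of extracellular parasites, then exposed to two-fold compound dilutions (final 0.5-10,000 ng/ml) for 96 h at 37° C, 5% CO2. Luciferin luminescence after 30 min; IC50 by sigmoidal variable-slope regression.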

[3] = tested on: Trypanosoma brucei rhodesiense STIB 900 strain; assay: Trypanosoma brucei rhodesiense STIB 900 screening assay; details: 72 h
Outline: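 Bloodstream forms of T. b. rhodesiense STIB 900 (10^4 per well) cultured with seven 3-fold drug dilutions (90 to 0.123 μg/mL) in MEM with 15% horse serum, 72 h, 37 °C, 5% CO2. Alamar Blue added for 2-4 h more; fluorescence read at ex 536/em 588 nm for IC50.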

[4] = STIB 900 bloodstream forms, Alamar Blue, protocol of Example 114, read-out: Swiss TPH T b rhodesiense IC50

SMILES | pIC50 [1] | pIC50 [2] | pIC50 [3, 4] | pIC50 ([3]; read-out: Swiss TPH T b rhodesiense IC50)
Cc1c(C(=O)Nc2ccc3c(c2)B(O)OC3)nnn1-c1ccccn1 [Example 84, N-(1-hydroxy-1,3-dihydrobenzo[c][1,2]oxaborol-6-yl)-5-methyl-1-(pyridin-2-yl)-1H-1,2,3-triazole-4-carboxamide] | 6.00 to 6.22 | 5.00 to 5.96 | – | –
Cc1c(C(=O)Nc2ccc3c(c2)B(O)OC32CCC2)nnn1-c1ccc(F)cc1 [Example 9, 1-(4-fluorophenyl)-N-(1-hydroxy-1H-spiro[benzo[c][1,2]oxaborole-3,1′-cyclobutan]-6-yl)-5-methyl-1H-1,2,3-triazole-4-carboxamide] | 5.00 to 5.96 | 4.30 to 5.00 | – | –
Cc1ccc(-n2cc(C(=O)Nc3ccc4c(c3)B(O)OC4)nn2)cc1 [Example 10, N-(1-hydroxy-1,3-dihydrobenzo[c][1,2]oxaborol-6-yl)-1-(p-tolyl)-1H-1,2,3-triazole-4-carboxamide] | > 6.22 | ≥ 6.00 | – | –
Cc1c(C(=O)Nc2ccc3c(c2)B(O)OC3C)nnn1-c1cccnc1 (stereo not drawn) [Example 14] | 5.00 to 5.96 | 5.00 to 5.96 | – | –
O=C(Nc1ccc2c(c1)B(O)OC2)c1nnn(-c2ccccc2F)c1C(F)(F)F [Example 67, 1-(2-Fluorophenyl)-N-(1-hydroxy-1,3-dihydrobenzo[c][1,2]oxaborol-6-yl)-5-(trifluoromethyl)-1H-1,2,3-triazole-4-carboxamide] | – | ≥ 6.00 | 6.60 to 7.00 | –
Cc1ccc(-n2nnc(C(=O)Nc3ccc4c(c3)B(O)OC4)c2C)cc1 [Example 11, N-(1-hydroxy-1,3-dihydrobenzo[c][1,2]oxaborol-6-yl)-5-methyl-1-(p-tolyl)-1H-1,2,3-triazole-4-carboxamide] | 5.00 to 5.96 | 5.00 to 5.96 | – | –
O=C(Nc1ccc2c(c1)B(O)OC2)c1nnn(-c2ccc(F)cc2)c1C(F)(F)F [Example 70, 1-(4-Fluorophenyl)-N-(1-hydroxy-1,3-dihydrobenzo[c][1,2]oxaborol-6-yl)-5-(trifluoromethyl)-1H-1,2,3-triazole-4-carboxamide] | – | ≥ 6.00 | 6.60 to 7.00 | –
COc1ccc(-n2nnc(C(=O)Nc3ccc4c(c3)B(O)OC43CCC3)c2C)cc1 [Example 20, N-(1-hydroxy-1H-spiro[benzo[c][1,2]oxaborole-3,1′-cyclobutan]-6-yl)-1-(4-methoxyphenyl)-5-methyl-1H-1,2,3-triazole-4-carboxamide] | 5.00 to 5.96 | 4.30 to 5.00 | – | –
Cc1c(C(=O)Nc2ccc3c(c2)B(O)OC3)nnn1-c1ccccc1 [Example 89, A-(1-hydroxy-1,3-dihydrobenzo[c][1,2]oxaborol-6-yl)-5-methyl-1-phenyl-1H-1,2,3-triazole-4-carboxamide] | – | ≥ 6.00 | – | > 7.00
CC1OB(O)c2cc(NC(=O)c3cn(-c4ccccc4)nn3)ccc21 (stereo not drawn) [Example 2] | > 6.22 | ≥ 6.00 | – | –
Cc1ccc(-n2nnc(C(=O)Nc3ccc4c(c3)B(O)OC43CCC3)c2C)cc1 [Example 16, N-(1-hydroxy-1H-spiro[benzo[c][1,2]oxaborole-3,1′-cyclobutan]-6-yl)-5-methyl-1-(p-tolyl)-1H-1,2,3-triazole-4-carboxamide] | 5.00 to 5.96 | 4.30 to 5.00 | – | –
CC1OB(O)c2cc(NC(=O)c3cn(-c4cccnc4)nn3)ccc21 (stereo not drawn) [Example 12, N-(1-hydroxy-3-methyl-1,3-dihydrobenzo[c][1,2]oxaborol-6-yl)-1-(pyridin-3-yl)-1H-1,2,3-triazole-4-carboxamide] | 6.00 to 6.22 | 5.00 to 5.96 | – | –
Cc1c(C(=O)Nc2ccc3c(c2)B(O)OC3C)nnn1-c1ccc(F)cc1 (stereo not drawn) [Example 6, 1-(4-fluorophenyl)-N-(1-hydroxy-3-methyl-1,3-dihydrobenzo[c][1,2]oxaborol-6-yl)-5-methyl-1H-1,2,3-triazole-4-carboxamide] | 6.00 to 6.22 | ≥ 6.00 | – | –
O=C(Nc1ccc2c(c1)B(O)OC21CCC1)c1cn(-c2ccccc2)nn1 [Example 3, N-(1-hydroxy-1H-spiro[benzo[c][1,2]oxaborole-3,1′-cyclobutan]-6-yl)-1-phenyl-1H-1,2,3-triazole-4-carboxamide] | 5.00 to 5.96 | ≥ 6.00 | – | –
COc1ccc(-n2cc(C(=O)Nc3ccc4c(c3)B(O)OC43CCC3)nn2)cc1 [Example 25, N-(1-hydroxy-1H-spiro[benzo[c][1,2]oxaborole-3,1′-cyclobutan]-6-yl)-1-(4-methoxyphenyl)-1H-1,2,3-triazole-4-carboxamide] | 6.00 to 6.22 | 4.30 to 5.00 | – | –
O=C(Nc1ccc2c(c1)B(O)OC21CCC1)c1cn(-c2ccc(F)cc2)nn1 [Example 7, 1-(4-fluorophenyl)-N-(1-hydroxy-1H-spiro[benzo[c][1,2]oxaborole-3,1′-cyclobutan]-6-yl)-1H-1,2,3-triazole-4-carboxamide] | 5.00 to 5.96 | 5.00 to 5.96 | – | –

SMILES | pIC50 [1] | pIC50 [2] | pIC50 [3, 4] | pIC50 ([3]; read-out: Swiss TPH T b rhodesiense IC50)
COc1ccc(-n2nnc(C(=O)Nc3ccc4c(c3)B(O)OC4C)c2C)cc1 (stereo not drawn) [Example 19, N-(1-hydroxy-3-methyl-1,3-dihydrobenzo[c][1,2]oxaborol-6-yl)-1-(4-methoxyphenyl)-5-methyl-1H-1,2,3-triazole-4-carboxamide] | 6.00 to 6.22 | ≥ 6.00 | – | –
Cc1c(C(=O)Nc2ccc3c(c2)B(O)OC3C)nnn1-c1ccccn1 (stereo not drawn) [Example 24, N-(1-hydroxy-3-methyl-1,3-dihydrobenzo[c][1,2]oxaborol-6-yl)-5-methyl-1-(pyridin-2-yl)-1H-1,2,3-triazole-4-carboxamide] | > 6.22 | ≥ 6.00 | – | –
Cc1c(C(=O)Nc2ccc3c(c2)B(O)OC32CCC2)nnn1-c1ccccc1 [Example 4, N-(1-hydroxy-1H-spiro[benzo[c][1,2]oxaborole-3,1′-cyclobutan]-6-yl)-5-methyl-1-phenyl-1H-1,2,3-triazole-4-carboxamide] | 6.00 to 6.22 | ≥ 6.00 | – | –
Cc1ccc(-n2nnc(C(=O)Nc3ccc4c(c3)B(O)OC4C)c2C)cc1 (stereo not drawn) [Example 13, N-(1-hydroxy-3-methyl-1,3-dihydrobenzo[c][1,2]oxaborol-6-yl)-5-methyl-1-(p-tolyl)-1H-1,2,3-triazole-4-carboxamide] | 6.00 to 6.22 | 5.00 to 5.96 | – | –
O=C(Nc1ccc2c(c1)B(O)OC21CCC1)c1cn(-c2cccnc2)nn1 [Example 8, N-(1-hydroxy-1H-spiro[benzo[c][1,2]oxaborole-3,1′-cyclobutan]-6-yl)-1-(pyridin-3-yl)-1H-1,2,3-triazole-4-carboxamide] | 5.00 to 5.96 | 4.30 to 5.00 | – | –
COc1ccc(-n2nnc(C(=O)Nc3ccc4c(c3)B(O)OC4)c2C)cc1 [Example 91, N-(1-hydroxy-1,3-dihydrobenzo[c][1,2]oxaborol-6-yl)-1-(4-methoxyphenyl)-5-methyl-1H-1,2,3-triazole-4-carboxamide] | – | 5.00 to 5.96 | – | –
COc1ccc(-n2cc(C(=O)Nc3ccc4c(c3)B(O)OC4)nn2)cc1 [Example 21, N-(1-hydroxy-1,3-dihydrobenzo[c][1,2]oxaborol-6-yl)-1-(4-methoxyphenyl)-1H-1,2,3-triazole-4-carboxamide] | > 6.22 | ≥ 6.00 | – | –
O=C(Nc1ccc2c(c1)B(O)OC21CCC1)c1cn(-c2ccccn2)nn1 [Example 26, N-(1-hydroxy-1H-spiro[benzo[c][1,2]oxaborole-3,1′-cyclobutan]-6-yl)-1-(pyridin-2-yl)-1H-1,2,3-triazole-4-carboxamide] | 5.00 to 5.96 | 5.00 to 5.96 | – | –
Cc1c(C(=O)Nc2ccc3c(c2)B(O)OC32CCC2)nnn1-c1cccnc1 [Example 17, N-(1-hydroxy-1H-spiro[benzo[c][1,2]oxaborole-3,1′-cyclobutan]-6-yl)-5-methyl-1-(pyridin-3-yl)-1H-1,2,3-triazole-4-carboxamide] | 5.00 to 5.96 | 4.30 to 5.00 | – | –
CC1OB(O)c2cc(NC(=O)c3cn(-c4ccc(F)cc4)nn3)ccc21 (stereo not drawn) [Example 5] | 6.00 to 6.22 | ≥ 6.00 | – | –
O=C(Nc1ccc2c(c1)B(O)OC2)c1cn(-c2ccc(F)cc2)nn1 [Example 60, 1-(4-Fluorophenyl)-N-(1-hydroxy-1,3-dihydrobenzo[c][1,2]oxaborol-6-yl)-1H-1,2,3-triazole-4-carboxamide] | – | – | > 7.00 | –
Cc1ccc(-n2cc(C(=O)Nc3ccc4c(c3)B(O)OC43CCC3)nn2)cc1 [Example 15] | 5.00 to 5.96 | 4.30 to 5.00 | – | –
CC1OB(O)c2cc(NC(=O)c3cn(-c4ccccn4)nn3)ccc21 (stereo not drawn) [Example 23, N-(1-hydroxy-3-methyl-1,3-dihydrobenzo[c][1,2]oxaborol-6-yl)-1-(pyridin-2-yl)-1H-1,2,3-triazole-4-carboxamide] | > 6.22 | ≥ 6.00 | – | –
Cc1ccc(-n2cc(C(=O)Nc3ccc4c(c3)B(O)OC4C)nn2)cc1 (stereo not drawn) [Example 18, N-(1-hydroxy-3-methyl-1,3-dihydrobenzo[c][1,2]oxaborol-6-yl)-1-(p-tolyl)-1H-1,2,3-triazole-4-carboxamide] | > 6.22 | ≥ 6.00 | – | –
COc1ccc(-n2cc(C(=O)Nc3ccc4c(c3)B(O)OC4C)nn2)cc1 (stereo not drawn) [Example 22, N-(1-hydroxy-3-methyl-1,3-dihydrobenzo[c][1,2]oxaborol-6-yl)-1-(4-methoxyphenyl)-1H-1,2,3-triazole-4-carboxamide] | > 6.22 | ≥ 6.00 | – | –
